This assay has as its system MV-4-11 cells. In words: Gene expression microarray analysis (Affymetrix PrimeView) and GSEA. It is filed as cell-based, human. Details: RFU PODN (11730768_x_at) / Fold change /veh PODN (11730768_x_at) / RFU LINC00158 (11744669_a_at) / Fold change /veh LINC00158 (11744669_a_at) / RFU DUSP10 (11751237_a_at) / Fold change /veh DUSP10 (11751237_a_at) / RFU ID3 (11757404_x_at) / Fold change /veh ID3 (11757404_x_at) / RFU PLEKHG5 (11737974_s_at) / Fold change /veh PLEKHG5 (11737974_s_at) / RFU LRRC4B (11730491_at) / Fold change /veh LRRC4B (11730491_at) / RFU GIMAP4 (11747438_a_at) / Fold change /veh GIMAP4 (11747438_a_at) / RFU KRT8 (11758183_x_at) / Fold change /veh KRT8 (11758183_x_at) / RFU CNN1 (11734310_a_at) / Fold change /veh CNN1 (11734310_a_at) / RFU VPS37D (11726825_at) / Fold change /veh VPS37D (11726825_at) / RFU C10orf10 (11716522_x_at) / Fold change /veh C10orf10 (11716522_x_at) / RFU KIR2DL2 /// KIR2DL4 /// KIR2DL5A /// KIR2DL5B /// KIR2DS1 /// KIR2DS2 /// KIR2DS3 /// KIR2DS4 /// KIR3DL3 /// KIR3DL3 /// KIR3DS1 (11738374_at) / Fold change /veh KIR2DL2 /// KIR2DL4 /// KIR2DL5A /// KIR2DL5B /// KIR2DS1 /// KIR2DS2 /// KIR2DS3 /// KIR2DS4 /// KIR3DL3 /// KIR3DL3 /// KIR3DS1 (11738374_at) / RFU C1QL1 (11718748_at) / Fold change /veh C1QL1 (11718748_at) / RFU TMPRSS4 (11747572_a_at) / Fold change /veh TMPRSS4 (11747572_a_at) / RFU HAMP (11756126_x_at) / Fold change /veh HAMP (11756126_x_at) / RFU RNFT2 (11725882_a_at) / Fold change /veh RNFT2 (11725882_a_at) / RFU NR4A2 (11747474_a_at) / Fold change /veh NR4A2 (11747474_a_at) / RFU ABCC12 (11746883_a_at) / Fold change /veh ABCC12 (11746883_a_at) / RFU TMEM136 (11760407_x_at) / Fold change /veh TMEM136 (11760407_x_at) / RFU CLDN22 /// WWC2 (11732394_at) / Fold change /veh CLDN22 /// WWC2 (11732394_at) / RFU HLA-DPB1 (11760878_x_at) / Fold change /veh HLA-DPB1 (11760878_x_at) / RFU SPINT1 (11716480_a_at) / Fold change /veh SPINT1 (11716480_a_at) / RFU GAP43 (11754022_s_at) / Fold change /veh GAP43 (11754022_s_at) / RFU A4GNT (11735810_at) / Fold change /veh A4GNT (11735810_at) / RFU PRB3 (11715151_x_at) / Fold change /veh PRB3 (11715151_x_at) / RFU TUBB4B (11761932_at) / Fold change /veh TUBB4B (11761932_at) / RFU CAPN14 (11732068_a_at) / Fold change /veh CAPN14 (11732068_a_at) / RFU TMCC2 (11721928_a_at) / Fold change /veh TMCC2 (11721928_a_at) / RFU IRGQ (11745062_a_at) / Fold change /veh IRGQ (11745062_a_at) / RFU FAM174B (11720279_a_at) / Fold change /veh FAM174B (11720279_a_at) / RFU TMPRSS4 (11748680_a_at) / Fold change /veh TMPRSS4 (11748680_a_at) / RFU FAM212B (11763350_a_at) / Fold change /veh FAM212B (11763350_a_at) / RFU PLEKHG5 (11743358_a_at) / Fold change /veh PLEKHG5 (11743358_a_at) / RFU ZSCAN30 (11745921_a_at) / Fold change /veh ZSCAN30 (11745921_a_at) / RFU CMKLR1 (11741424_a_at) / Fold change /veh CMKLR1 (11741424_a_at) / RFU LOC101060620 /// MAPK8IP1 (11723275_at) / Fold change /veh LOC101060620 /// MAPK8IP1 (11723275_at) / RFU SPTSSB (11747773_x_at) / Fold change /veh SPTSSB (11747773_x_at) / RFU PRSS12 (11739890_at) / Fold change /veh PRSS12 (11739890_at) / RFU BIN1 (11741810_x_at) / Fold change /veh BIN1 (11741810_x_at) / RFU WNT11 (11732464_a_at) / Fold change /veh WNT11 (11732464_a_at) / RFU C10orf10 (11716521_a_at) / Fold change /veh C10orf10 (11716521_a_at) / RFU C5orf56 (11738089_at) / Fold change /veh C5orf56 (11738089_at) / RFU CYB561 (11721691_x_at) / Fold change /veh CYB561 (11721691_x_at) / RFU ANKRD19P (11752326_a_at) / Fold change /veh ANKRD19P (11752326_a_at) / RFU OR2T12 /// OR2T33 /// OR2T8 (11738714_s_at) / Fold change /veh OR2T12 /// OR2T33 /// OR2T8 (11738714_s_at) / RFU VCAN (11748164_a_at) / Fold change /veh VCAN (11748164_a_at) / RFU JSRP1 (11732532_at) / Fold change /veh JSRP1 (11732532_at) / RFU KRTAP10-11 (11738290_x_at) / Fold change /veh KRTAP10-11 (11738290_x_at) / RFU MYO3A (11730013_a_at) / Fold change /veh MYO3A (11730013_a_at) / RFU EBF3 (11725865_a_at) / Fold change /veh EBF3 (11725865_a_at) / RFU CAMK2N1 (11719241_x_at) / Fold change /veh CAMK2N1 (11719241_x_at) / RFU C5orf56 (11738088_a_at) / Fold change /veh C5orf56 (11738088_a_at) / RFU OLFML3 (11715873_a_at) / Fold change /veh OLFML3 (11715873_a_at) / RFU LOC100653217 /// NTM (11731650_a_at) / Fold change /veh LOC100653217 /// NTM (11731650_a_at) / RFU MAPK11 (11762145_a_at) / Fold change /veh MAPK11 (11762145_a_at) / RFU FIZ1 (11724087_x_at) / Fold change /veh FIZ1 (11724087_x_at) / RFU OASL (11726364_x_at) / Fold change /veh OASL (11726364_x_at) / RFU SOX15 (11748057_x_at) / Fold change /veh SOX15 (11748057_x_at) / RFU CD79A (11719716_a_at) / Fold change /veh CD79A (11719716_a_at) / RFU HIST1H1D (11736915_at) / Fold change /veh HIST1H1D (11736915_at) / RFU CASKIN2 (11723855_a_at) / Fold change /veh CASKIN2 (11723855_a_at) / RFU LOC730098 (11760151_x_at) / Fold change /veh LOC730098 (11760151_x_at) / RFU OR4N2 (11742367_at) / Fold change /veh OR4N2 (11742367_at) / RFU PRRT2 (11749266_a_at) / Fold change /veh PRRT2 (11749266_a_at) / RFU SNX32 (11753110_a_at) / Fold change /veh SNX32 (11753110_a_at) / RFU CDHR5 (11726645_a_at) / Fold change /veh CDHR5 (11726645_a_at) / RFU RCAN1 (11760418_a_at) / Fold change /veh RCAN1 (11760418_a_at) / RFU FAM167A (11723789_a_at) / Fold change /veh FAM167A (11723789_a_at) / RFU FAM26E (11764081_at) / Fold change /veh FAM26E (11764081_at) / RFU ISYNA1 (11749810_s_at) / Fold change /veh ISYNA1 (11749810_s_at) / RFU ACY1 (11761880_at) / Fold change /veh ACY1 (11761880_at) / RFU 11764098_at / Fold change /veh 11764098_at / RFU SAMD14 (11745864_x_at) / Fold change /veh SAMD14 (11745864_x_at) / RFU NPB (11741838_a_at) / Fold change /veh NPB (11741838_a_at) / RFU TMPRSS6 (11731388_a_at) / Fold change /veh TMPRSS6 (11731388_a_at) / RFU KRTAP10-2 (11738614_at) / Fold change /veh KRTAP10-2 (11738614_at) / RFU ARHGAP8 /// PRR5-ARHGAP8 (11727945_x_at) / Fold change /veh ARHGAP8 /// PRR5-ARHGAP8 (11727945_x_at) / RFU KRTAP5-7 /// NADSYN1 (11734609_at) / Fold change /veh KRTAP5-7 /// NADSYN1 (11734609_at) / RFU RASL12 (11751679_a_at) / Fold change /veh RASL12 (11751679_a_at) / RFU CDKN2B (11736163_a_at) / Fold change /veh CDKN2B (11736163_a_at) / RFU PRF1 (11729649_at) / Fold change /veh PRF1 (11729649_at) / RFU, ZNF638 /// ZNF638-IT1 / Fold change vs veh, ZNF638 /// ZNF638-IT1 / RFU, PANK3 / Fold change vs veh, PANK3 / RFU, SH3YL1 / Fold change vs veh, SH3YL1 / RFU, ZEB2 / Fold change vs veh, ZEB2 / RFU, NRIP1 / Fold change vs veh, NRIP1 / RFU, PTTG1IP / Fold change vs veh, PTTG1IP / RFU, CAPN2 / Fold change vs veh, CAPN2 / RFU, MED14 / Fold change vs veh, MED14 / RFU, SNORA58 / Fold change vs veh, SNORA58 / RFU, C1orf63 / Fold change vs veh, C1orf63 / RFU, LRRFIP1 / Fold change vs veh, LRRFIP1 / RFU, NDUFAF7 / Fold change vs veh, NDUFAF7 / RFU, SLC12A2 / Fold change vs veh, SLC12A2 / RFU, IBTK / Fold change vs veh, IBTK / RFU, ESF1 / Fold change vs veh, ESF1 / Fold change vs veh, TMEM50B / RFU, TAOK1 / Fold change vs veh, TAOK1 / RFU, ACBD3 / Fold change vs veh, ACBD3 / RFU, TMA16 / Fold change vs veh, TMA16 / RFU, RWDD3 / Fold change vs veh, RWDD3 / RFU, BCAT1 / Fold change vs veh, BCAT1 / RFU, EDEM3 / Fold change vs veh, EDEM3 / RFU, TMEM33 / Fold change vs veh, TMEM33 / RFU, WDR75 / Fold change vs veh, WDR75 / RFU, AHCTF1 / Fold change vs veh, AHCTF1 / RFU, TFRC / Fold change vs veh, TFRC / RFU, ZDHHC17 / Fold change vs veh, ZDHHC17 / RFU, NOM1 / Fold change vs veh, NOM1 / RFU, ARL8B / Fold change vs veh, ARL8B / RFU, ZBTB11 / Fold change vs veh, ZBTB11 / RFU, TAMM41 / Fold change vs veh, TAMM41 / RFU, KIAA1704 /// LOC100996395 / Fold change vs veh, KIAA1704 /// LOC100996395 / RFU, ING1 / Fold change vs veh, ING1 / RFU, TRMT61B / Fold change vs veh, TRMT61B / RFU, FUBP3 / Fold change vs veh, FUBP3 / RFU, TP53 / Fold change vs veh, TP53 / RFU, TNKS2 / Fold change vs veh, TNKS2 / RFU, ZFP14 / Fold change vs veh, ZFP14 / RFU, ACTR2 / Fold change vs veh, ACTR2 / RFU, PPP3R1 / Fold change vs veh, PPP3R1 / RFU, PIK3R1 / Fold change vs veh, PIK3R1 / RFU, HNRNPA1 / Fold change vs veh, HNRNPA1 / RFU, RNF170 / Fold change vs veh, RNF170 / RFU, ZNF28 / Fold change vs veh, ZNF28 / RFU, RNGTT / Fold change vs veh, RNGTT / RFU, OGT / Fold change vs veh, OGT / RFU, BRD1 / Fold change vs veh, BRD1 / RFU, MARS / Fold change vs veh, MARS / RFU, ZNF655 / Fold change vs veh, ZNF655 / RFU, FAHD1 / Fold change vs veh, FAHD1 / RFU, BDP1 / Fold change vs veh, BDP1 / RFU, LRRCC1 / Fold change vs veh, LRRCC1 / RFU, ARID1A / Fold change vs veh, ARID1A / RFU, ZNF146 / Fold change vs veh, ZNF146 / RFU, ZNF330 / Fold change vs veh, ZNF330 / RFU, GPN3 / Fold change vs veh, GPN3 / RFU, C9orf123 / Fold change vs veh, C9orf123 / RFU, N4BP2L2 / Fold change vs veh, N4BP2L2 / RFU, ARFIP1 / Fold change vs veh, ARFIP1 / RFU, FAM179B / Fold change vs veh, FAM179B / RFU, BCL10 / Fold change vs veh, BCL10 / RFU, UHRF1BP1L / Fold change vs veh, UHRF1BP1L / RFU, BET1 / Fold change vs veh, BET1 / RFU, CNOT2 / Fold change vs veh, CNOT2 / RFU, ZNF268 / Fold change vs veh, ZNF268 / Fold change vs veh, ZNF507 / RFU, DGCR2 / Fold change vs veh, DGCR2 / RFU, WDSUB1 / Fold change vs veh, WDSUB1 / Fold change vs veh, HSP90B1 /// MIR3652 / RFU, ADSS / Fold change vs veh, ADSS / RFU, GK / Fold change vs veh, GK / RFU, ZNF148 / Fold change vs veh, ZNF148 / RFU, TAF9 / Fold change vs veh, TAF9 / RFU, SLC1A5 / Fold change vs veh, SLC1A5 / RFU, SLMO2 / Fold change vs veh, SLMO2 / RFU, ABCC4 / Fold change vs veh, ABCC4 / RFU, LOC101060439 /// RAP1B / Fold change vs veh, LOC101060439 /// RAP1B / RFU, RFX7 / Fold change vs veh, RFX7 / RFU, GTPBP10 / Fold change vs veh, GTPBP10 / RFU, CNEP1R1 / Fold change vs veh, CNEP1R1 / RFU, BIVM-ERCC5 /// ERCC5 / Fold change vs veh, BIVM-ERCC5 /// ERCC5 / RFU, ILF3 / Fold change vs veh, ILF3 / RFU 11762660_at / Fold change /veh 11762660_at / RFU VCAN (11757783_s_at) / Fold change /veh VCAN (11757783_s_at) / RFU DDX43 (11728927_at) / Fold change /veh DDX43 (11728927_at) / RFU KRT8 (11758188_x_at) / Fold change /veh KRT8 (11758188_x_at) / RFU NKD1 (11759106_at) / Fold change /veh NKD1 (11759106_at) / RFU SRD5A1 (11742802_a_at) / Fold change /veh SRD5A1 (11742802_a_at) / RFU TPSAB1 /// TPSB2 (11721975_s_at) / Fold change /veh TPSAB1 /// TPSB2 (11721975_s_at) / RFU GSTM3 (11746129_a_at) / Fold change /veh GSTM3 (11746129_a_at) / RFU IL23R (11737362_x_at) / Fold change /veh IL23R (11737362_x_at) / RFU TMEM51 (11727254_a_at) / Fold change /veh TMEM51 (11727254_a_at) / RFU PIWIL2 (11732686_x_at) / Fold change /veh PIWIL2 (11732686_x_at) / RFU ORM1 (11744905_x_at) / Fold change /veh ORM1 (11744905_x_at) / RFU CCDC152 (11743942_at) / Fold change /veh CCDC152 (11743942_at) / RFU ECM1 (11717891_a_at) / Fold change /veh ECM1 (11717891_a_at) / RFU IL23R (11748794_a_at) / Fold change /veh IL23R (11748794_a_at) / RFU TNFAIP8L3 (11732012_x_at) / Fold change /veh TNFAIP8L3 (11732012_x_at) / RFU MBOAT4 (11741988_at) / Fold change /veh MBOAT4 (11741988_at) / RFU 11764193_at / Fold change /veh 11764193_at / RFU TMEM53 (11763286_at) / Fold change /veh TMEM53 (11763286_at) / RFU MAGEB2 (11727129_at) / Fold change /veh MAGEB2 (11727129_at) / RFU TMEM200A (11744735_a_at) / Fold change /veh TMEM200A (11744735_a_at) / RFU CCDC152 (11751479_a_at) / Fold change /veh CCDC152 (11751479_a_at) / RFU FAM211A (11726209_a_at) / Fold change /veh FAM211A (11726209_a_at) / RFU RGS16 (11746705_a_at) / Fold change /veh RGS16 (11746705_a_at) / RFU VCAN (11755009_s_at) / Fold change /veh VCAN (11755009_s_at) / RFU RHOB (11743442_s_at) / Fold change /veh RHOB (11743442_s_at) / RFU RGS16 (11720943_a_at) / Fold change /veh RGS16 (11720943_a_at) / RFU RGS16 (11720944_at) / Fold change /veh RGS16 (11720944_at) / RFU, VPS4B / Fold change vs veh, VPS4B / RFU, CREB1 / Fold change vs veh, CREB1 / RFU, DNAJC13 / Fold change vs veh, DNAJC13 / RFU, GNAQ / Fold change vs veh, GNAQ / RFU, CDK5R1 / Fold change vs veh, CDK5R1 / RFU, ZRANB3 / Fold change vs veh, ZRANB3 / RFU, CUL4A / Fold change vs veh, CUL4A / RFU, CCNY / Fold change vs veh, CCNY / RFU, UFL1 / Fold change vs veh, UFL1 / RFU, COG3 / Fold change vs veh, COG3 / RFU, DIAPH2 / Fold change vs veh, DIAPH2 / RFU, SKA2 / Fold change vs veh, SKA2 / RFU, AFF3 / Fold change vs veh, AFF3 / RFU, LMF1 / Fold change vs veh, LMF1 / RFU, IPO11 / Fold change vs veh, IPO11 / RFU, DFFB / Fold change vs veh, DFFB / RFU, FOXP1 / Fold change vs veh, FOXP1 / RFU, CARD8 / Fold change vs veh, CARD8 / RFU, STRN3 / Fold change vs veh, STRN3 / RFU, ADK / Fold change vs veh, ADK / RFU, RASSF2 / Fold change vs veh, RASSF2 / RFU, WIPF1 / Fold change vs veh, WIPF1 / RFU, LARP1B / Fold change vs veh, LARP1B / RFU, RASA1 / Fold change vs veh, RASA1 / RFU, RB1 / Fold change vs veh, RB1 / RFU, PPFIA1 / Fold change vs veh, PPFIA1 / RFU, MAT2A / Fold change vs veh, MAT2A / RFU, CCT5 / Fold change vs veh, CCT5 / RFU, WDR92 / Fold change vs veh, WDR92 / RFU, CUX1 / Fold change vs veh, CUX1 / RFU, TTC7A / Fold change vs veh, TTC7A / RFU, TMEM135 / Fold change vs veh, TMEM135 / RFU, DEPTOR / Fold change vs veh, DEPTOR / RFU, CPM / Fold change vs veh, CPM / RFU, DNAJB6 / Fold change vs veh, DNAJB6 / RFU, CACNA2D3 / Fold change vs veh, CACNA2D3 / RFU, DTX4 / Fold change vs veh, DTX4 / RFU, TFCP2 / Fold change vs veh, TFCP2 / RFU, GMCL1 /// GMCL1P1 / Fold change vs veh, GMCL1 /// GMCL1P1 / RFU, AEBP2 / Fold change vs veh, AEBP2 / RFU, SNHG1 /// SNORD22 /// SNORD25 /// SNORD26 /// SNORD27 /// SNORD28 /// SNORD29 /// SNORD31 / Fold change vs veh, SNHG1 /// SNORD22 /// SNORD25 /// SNORD26 /// SNORD27 /// SNORD28 /// SNORD29 /// SNORD31 / Fold change (Aza/veh), C12orf56 (ProbeSet 11735607_a_at) / Fold change (ACY-1035/veh), C12orf56 (ProbeSet 11735607_a_at) / Fold change (Aza/veh), FGFR1OP (ProbeSet 11751329_s_at) / Fold change (ACY-1035/veh), FGFR1OP (ProbeSet 11751329_s_at) / Fold change (Aza/veh), VPS36 (ProbeSet 11739960_a_at) / Fold change (ACY-1035/veh), VPS36 (ProbeSet 11739960_a_at) / RFU SYPL1 (11715823_x_at) / Fold change /veh SYPL1 (11715823_x_at) / RFU IGFBP7 (11715501_s_at) / Fold change /veh IGFBP7 (11715501_s_at) / RFU REEP3 (11722064_at) / Fold change /veh REEP3 (11722064_at) / RFU IGLL1 (11728026_x_at) / Fold change /veh IGLL1 (11728026_x_at): dose or concentration left out as unconfirmed. The following applies: ProbeSet 11748670_a_at; LIST B.

Molecules are shown by their SMILES.

Take `Nc1ccc(-c2cccs2)cc1NC(=O)c1ccc2c(c1)cc(C1CC1)n2CCN1CCOCC1` [ACY-1035]: the “Fold change vs veh, PIK3R1” value is on record as 0.90.

The values above are taken from article PMC5218480 (PLoS ONE, 2017).
